Measured values published in US8551956B2, “Compositions containing peptides with non-natural amino acids and methods of use” (Avon Products, Inc., priority 2006, dated 2013).

System: Fibronectin
Test: Stimulation of fibronectin production in Normal Human Dermal Fibroblasts-Adult, competitive inhibition ELISA of conditioned medium
Type: cell-based
Conditions: in vitro, concentration not given
Method: Normal Human Dermal Fibroblasts-Adult (Cascade Biologics) were cultured in 12-well tissue culture treated plates and treated for 72 hours in the presence or absence of test actives. Following incubation, the conditioned medium from each treatment was collected in a 1.7 mL microcentrifuge tube and frozen at −80° C. for subsequent analysis. The assay was in the format of a competitive inhibition ELISA.
Human fibronectin was pre-coated on the wells except for one row, which served as a reference. Standards and samples were pre-incubated with polyclonal rabbit antibody to human fibronectin. The polyclonal antibody was bound to the fibronectin in the standard dilutions, and in the sample, if present. The mixture was then transferred to the human fibronectin-coated plate. Free rabbit anti-human fibronectin was bound to the fibronectin on the plate. Goat anti-rabbit IgG HRP-conjugate reacted with bound rabbit anti-fibronectin. When HRP substrate was added, a blue color developed. The reaction was stopped by the addition of an acid, changing the color to yellow. This color was quantitated using a microplate reader set at 450 nm. The intensity of the color was inversely proportional to the amount of fibronectin in the original sample.

SMILES: NCCCC[C@H](N)C(=O)NCCCCC(=O)NCCCC[C@H](N)C(=O)O [KavaK]
- Fibronectin production, more compared to untreated control fibroblasts: 28%
